{"source": "patent US20260144808A1", "about": "“TREATMENT OF REPEAT EXPANSION DISEASE” (The Johns Hopkins University, priority 2022, published 2026)", "molecules": {"B1": {"name": "(G4C2)10 dsDNA (dsDNA)", "DNA 1": "GGGGCCGGGGCCGGGGCCGGGGCCGGGGCCGGGGCCGGGGCCGGGGCCGGGGCCGGGGCC", "DNA 2": "GGCCCCGGCCCCGGCCCCGGCCCCGGCCCCGGCCCCGGCCCCGGCCCCGGCCCCGGCCCC"}}, "key": {"C9orf72 V2 transcripts": {"system": "C9orf72 V2 transcripts", "assay": "RT-qPCR analysis of C9V2 mRNA levels in human RPE1 cells after drug treatment", "format": "cell-based", "settings": "24 h; for levels of C9orf72 V2 transcripts: vs DMSO, FIG. 13J; for C9V2 mRNA, as measured by RT-qPCR: increasing concentrations of TM or TG, FIG. 13G", "experimental": "(§1) Cell culture, drug treatment, lentiviral shRNA knockdown, and live-cell imaging—HEK293 cells and mouse embryonic fibroblast (MEF) cells were cultured in DMEM containing 10% FBS. Human retinal pigment epithelial 1 (RPE1) cells were cultured in DMEM/F12 containing 10% FBS and 0.01 mg/ml hygromycin B. Human B lymphocytes were cultured in RPMI 1640 medium containing 15% FBS. Human iPSCs were obtained from the NINDS Human Cell and Data Repository and maintained in StemFlex medium (Gibco, A3349401), with medium exchange every other day. All cell lines were checked regularly for mycoplasma contamination. To induce cell stress, RPE1 cells were treated with thapsigargin (30 nM) or tunicamycin (5 μg/ml) for 24 h, and B lymphocytes were treated with thapsigargin (40 nM) or tunicamycin (1 μg/ml) for 24 h. To express PR82, RPE1 cells were transfected with the pLenti-PR82 plasmid and cultured for 48 h.\n(§2) Quantitative PCR— Total RNAs were extracted with an RNeasy Plus mini kit (Qiagen, 74136), and cDNAs were synthesized using QuantiTect reverse transcription reagents (Qiagen, 205313). qPCR reactions were carried out on a Bio-Rad thermal cycler using PowerUp SYBR Green Master Mix (ThermoFisher Scientific). The primer sets for C9orf72 transcripts V1, V2, and V3 were described previously (Gendron et al., 2017, incorporated herein by reference). The expression of C9orf72 pre-mRNA was measured with a pair of primers targeted to the junction region between exon 2 and intron 3 (SEQ ID NO: 11 and 12). The mRNA expression levels were analyzed by the ΔΔCt method and normalized against housekeeping genes. In the promoter analysis, the EGFP transcription level was normalized to the GAPDH transcript and the plasmid-encoded ampicillin resistance (AmpR) transcript to exclude any bias induced by differential transfection efficiency."}, "C9HRE iMNs": {"system": "C9HRE iMNs", "assay": "Neuronal survival of C9HRE iMNs under tunicamycin stress, calcein-AM staining", "format": "cell-based, human", "experimental": "(§3) Motor neuron differentiation of human iPS cells and experimental analyses—The differentiation of iPSCs into motor neurons was performed as previously described (Liu et al., 2018). In brief, iPSCs were seeded onto Matrigel-coated plates and differentiated into neuroepithelial progenitor cells (NEPCs) by culturing 6 days in neural medium (1:1 DMEM/F12:neurobasal medium. GlutaMax, N2 supplement, B27 supplement, and ascorbic acid) containing 3 μM […], 2 μM SB431542, and 2 μM DMH-1. NEPCs were dissociated with dispase (1 U/ml) and split into new plates coated with Matrigel at a ratio of about 1:6. NEPCs were differentiated into motor neuron progenitor cells (MNPCs) using neural medium supplemented with 1 μM CHIR99021, 2 μM SB431542, 2 μM DMH-1, 0.1 μM retinoic acid (RA), and 0.5 μM purmorphamine. After culturing for 6 days, MNPCS were dissociated and cultured in suspension using neural medium containing 0.5 μM RA and 0.1 μM purmorphamine. Six days later, neural spheres were dissociated and plated onto a Matrigel-coated plate. Adherent neural spheres were cultured in neural medium supplemented with 0.5 μM RA, 0.1 μM purmorphamine, and 0.1 μM compound E. After 12 days, mature motor neurons were provided for experiments. The medium was changed every other day during the entire differentiation period.\nFor knockdown experiments on motor neurons, iMNs were infected twice with the shRNA-expressing lentiviruses, on day 10 and day 12 at the final differentiation stage, and the cells were used on day 15 to allow for efficient DAXX knockdown. Mature iMNs were stressed with tunicamycin (5 μg/ml) in the presence of Na-Phen (10 μM) or 5-aza-2 ([…]) for the indicated times, and neuronal survival at each time point was measured by calcein-AM staining. In brief, iMNs were stained with 3 μM calcein-AM (Invitrogen, C1430), and the fluorescence of surviving iMNs was read using a plate reader (Synergy H1 Hybrid) with excitation/emission at 485 nm/535 nm. Optical fields with calcein-positive iMNs were randomly selected and images captured using a fluorescence microscope (Nikon Eclipse TS100)."}, "C9orf72 protein and mRNA": {"system": "C9orf72 protein and mRNA", "assay": "Stress-induced C9orf72 expression in control and C9HRE B lymphocytes (immunoblotting, RT-qPCR)", "format": "cell-based, human", "settings": "tunicamycin 1 μg/ml or thapsigargin 40 nM, 24 h; for dynamic regulation of C9orf72 expression: B lymphocytes from C9HRE patients; for stress-responsive induction of C9orf72 expression at both the protein and mRNA levels: normal B lymphocytes", "experimental": "as §1, §2\nImmunoblotting—Cultured cells were washed twice with PBS and lysed in cold RIPA buffer containing 50 mM Tris (pH 7.5), 0.5% SDS, 150 mM NaCl, 0.5% NP40, 20 mM EDTA, 1 mM PMSF, and Protease Inhibitor Cocktail (1:200, Millipore Sigma, P8340).\n(§4) Protein concentrations were measured by the bicinchoninic acid assay (ThermoFisher, 23225). […] Western blot images were captured by an Odyssey scanner (LI-COR) and analyzed with Image Studio (version 5.2.5). […]"}, "C9orf72 V2 promoter": {"system": "C9orf72 V2 promoter", "assay": "ChIP-qPCR of H3K9me3 and H3K27ac at the C9orf72 V2 promoter in human RPE1 cells", "format": "cell-based", "settings": "24 h, vs DMSO, FIG. 13I", "experimental": "as §1\nChromatin immunoprecipitation qPCR—ChIP-qPCR analysis of RPE1 cells, B lymphocytes, and iPSC-differentiated motor neurons was performed by using a CHIP assay kit (Millipore Sigma, 17-295). In brief, protein complexes were crosslinked with 1% formaldehyde at 37° C. for 10 min and quenched with glycine at a final concentration of 125 mM at 37° C. for 5 min. […]"}, "C9V2 mRNA": {"system": "C9V2 mRNA", "assay": "RT-qPCR analysis of C9V2 mRNA in HEK293 cells after stressor treatment", "format": "cell-based, human", "settings": "increasing concentrations of TM or TG, 24 h, FIG. 13F", "experimental": "as §1, with “To express PR82, RPE1 cells were transfected with the pLenti-PR82 plasmid and cultured for 48 h.” left out\n(§5) Quantitative PCR— Total RNAs were extracted with an RNeasy Plus mini kit (Qiagen, 74136), and cDNAs were synthesized using QuantiTect reverse transcription reagents (Qiagen, 205313). qPCR reactions were carried out on a Bio-Rad thermal cycler using PowerUp SYBR Green Master Mix (ThermoFisher Scientific). […] The expression of C9orf72 pre-mRNA was measured with a pair of primers targeted to the junction region between exon 2 and intron 3 (SEQ ID NO: 11 and 12). The mRNA expression levels were analyzed by the ΔΔCt method and normalized against housekeeping genes. […]"}, "[1]": {"system": "mutant SOD1 mouse model of ALS", "settings": "Ryu et al., 2005; cited from earlier work"}, "[2]": {"system": "C9orf72 protein and V2 mRNA", "assay": "Stress-induced C9orf72 expression in control and C9HRE iMNs (immunoblotting, RT-qPCR)", "format": "cell-based, human", "settings": "tunicamycin 5 μg/ml, 24 h", "experimental": "as §3, §5, §4"}, "DAXX": {"biological_target": "DAXX (Homo sapiens, UniProt Q9UER7 Q9UER7:1-740)", "sequence (Q9UER7 whole entry, one chain of several)": "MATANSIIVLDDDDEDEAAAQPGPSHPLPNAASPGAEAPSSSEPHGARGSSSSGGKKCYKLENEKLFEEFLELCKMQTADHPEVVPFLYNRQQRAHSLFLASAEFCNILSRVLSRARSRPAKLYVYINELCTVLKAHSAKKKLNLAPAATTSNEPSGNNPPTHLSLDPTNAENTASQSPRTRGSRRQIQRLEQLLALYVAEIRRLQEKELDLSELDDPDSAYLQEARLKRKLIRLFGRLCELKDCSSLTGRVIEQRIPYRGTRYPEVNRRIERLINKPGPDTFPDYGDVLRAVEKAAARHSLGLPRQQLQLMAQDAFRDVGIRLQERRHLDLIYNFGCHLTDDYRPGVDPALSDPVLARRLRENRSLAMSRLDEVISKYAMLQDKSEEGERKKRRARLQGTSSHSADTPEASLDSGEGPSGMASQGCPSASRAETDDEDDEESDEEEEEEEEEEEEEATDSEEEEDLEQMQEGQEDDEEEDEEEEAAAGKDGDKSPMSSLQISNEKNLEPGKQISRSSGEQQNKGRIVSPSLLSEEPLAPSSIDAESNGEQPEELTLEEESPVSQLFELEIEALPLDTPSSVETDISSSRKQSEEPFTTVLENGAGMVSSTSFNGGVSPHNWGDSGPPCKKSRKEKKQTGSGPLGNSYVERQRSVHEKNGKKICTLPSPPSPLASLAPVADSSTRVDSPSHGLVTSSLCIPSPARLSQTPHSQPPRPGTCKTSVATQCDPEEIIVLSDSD", "assay": "EMSA; significantly preferential over random control; 50 nM probe, 10 mM Tris pH 7.5, 1 mM EDTA, 0.1 mM DTT, BSA, 5% glycerol, RT 30 min", "settings": "tags: Flag-DAXX (Flag-Daxx/pRK5, Addgene 27974), anti-Flag M2 purified from HEK293 per Methods; label: 5' Alexa Fluor 488 on one strand", "experimental": "Several assays were used to validate the interaction between DAXX and the G4C2 repeat dsDNA. […] Next, experiments were conducted to test whether DAXX protein and G4C2 repeat dsDNA interact directly. In these experiments, human DAXX protein (FIG. 8D) was purified and an electrophoresis mobility shift assay (EMSA) was performed using 5′ AlexaFluor 488-labeled (G4C2)₁₀ dsDNA or a length-matched random sequence control. […] In addition, experiments were performed to establish the association of endogenous DAXX with the expanded C9orf72 (G4C2)n DNA repeats in situ. In these experiments, DNA fluorescent in situ hybridization (FISH) was used to immunostain DAXX on multiple lines of ALS and/or FTD patient lymphocytes carrying C9orf72 HRE mutations. A co-localization between the DAXX immunostaining and FISH staining at the C9HRE locus was indicated by a well-demarcated punctum present only in the nuclei of patient cells and not in the control cells (FIG. 1A)."}}, "data": [{"molecule": "Nc1ncn([C@H]2C[C@H](O)[C@@H](CO)O2)c(=O)n1", "note": "[Compound 5-aza-2, 5-aza-2′-deoxycytidine]", "values": [{"measurement": "levels of C9orf72 V2 transcripts", "setting": "C9orf72 V2 transcripts; 5-aza-2 2 μM", "result": "significantly upregulated"}, {"measurement": "survival of C9HRE iMNs exposed to tunicamycin", "setting": "C9HRE iMNs; TM 5 μg/ml with 5-aza-2 2 μM, vs DMSO, FIG. 7C, D", "result": "significant increase"}]}, {"molecule": "C/C=C(/C)C(=O)O[C@H]1C(C)=C2[C@H]([C@@H]1OC(=O)CCCCCCC)[C@@](C)(OC(C)=O)C[C@H](OC(=O)CCC)[C@@]1(O)[C@H]2OC(=O)[C@@]1(C)O", "note": "[thapsigargin]", "values": [{"measurement": "C9V2 mRNA, as measured by RT-qPCR", "setting": "C9orf72 V2 transcripts", "result": "stress-dependent induction"}, {"measurement": "dynamic regulation of C9orf72 expression", "setting": "C9orf72 protein and mRNA", "result": "lost"}, {"measurement": "stress-responsive induction of C9orf72 expression at both the protein and mRNA levels", "setting": "C9orf72 protein and mRNA", "result": "observed"}, {"measurement": "levels of the repressive marker H3K9me3 at the C9orf72 V2 promoter", "setting": "C9orf72 V2 promoter; TG 30 nM", "result": "decreased"}, {"measurement": "C9V2 mRNA, as measured by RT-qPCR", "setting": "C9V2 mRNA", "result": "stress-dependent induction"}]}, {"molecule": "O=C([O-])CCCc1ccccc1.[Na+]", "note": "[Na-Phen, sodium phenylbutyrate]", "values": [{"measurement": "levels of C9orf72 V2 transcripts", "setting": "C9orf72 V2 transcripts; Na-Phen 10 μM", "result": "significantly upregulated"}, {"measurement": "protection of C9HRE iMNs from tunicamycin-induced stress", "setting": "C9HRE iMNs; TM 5 μg/ml with Na-Phen 10 μM, vs DMSO, FIG. 7C, D", "result": "robust protection"}, {"measurement": "survival in a mutant SOD1 mouse model of ALS", "setting": "[1]", "result": "prolongs the survival"}]}, {"molecule": "tunicamycin", "values": [{"measurement": "C9V2 mRNA, as measured by RT-qPCR", "setting": "C9orf72 V2 transcripts", "result": "stress-dependent induction"}, {"measurement": "loss of C9HRE iMNs", "setting": "C9HRE iMNs; tunicamycin 5 μg/ml alone, FIG. 7A, B", "result": "time-dependent loss"}, {"measurement": "tunicamycin-induced upregulation of C9orf72 expression", "setting": "[2]; iMNs derived from C9HRE patients, FIG. 5A-C", "result": "absent"}, {"measurement": "C9orf72 protein levels", "setting": "[2]; iMNs from healthy individuals, vs DMSO, FIG. 5A-B", "result": "significantly increased"}, {"measurement": "C9orf72 V2 mRNA levels", "setting": "[2]; iMNs from healthy individuals, vs DMSO, FIG. 5C", "result": "significantly increased"}, {"measurement": "dynamic regulation of C9orf72 expression", "setting": "C9orf72 protein and mRNA", "result": "lost"}, {"measurement": "stress-responsive induction of C9orf72 expression at both the protein and mRNA levels", "setting": "C9orf72 protein and mRNA", "result": "observed"}, {"measurement": "levels of the active marker H3K27ac at the C9orf72 V2 promoter", "setting": "C9orf72 V2 promoter; TM 5 μg/ml", "result": "elevated"}, {"measurement": "C9V2 mRNA, as measured by RT-qPCR", "setting": "C9V2 mRNA", "result": "stress-dependent induction"}]}, {"molecule": "B1", "values": [{"measurement": "binding result", "setting": "DAXX", "result": "binds"}]}]}
